Read-outs that look alike come from different tables or passages of the source.
Test system: NLRP3
Experiment: IL-1β secretion assay in PMA-differentiated, LPS/nigericin-stimulated THP-1 cells (384-well, ELISA read-out)
Assay type: cell-based, human
Settings: Homo sapiens
Procedure, shortened: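 Secreted IL-1β quantified by capture ELISA from supernatants of PMA-differentiated THP-1 cells (30K per well). Sequence: LPS 25 ng/mL priming 2 h, compound 1 h, nigericin 2 h; dose-responses normalized between high (LPS plus 5 μM nigericin) and low (LPS alone) controls.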

[1] = THP-1, IL-1β secretion, PMA-differentiated THP-1 cells, LPS then nigericin stimulation, ELISA read at 450 nm, read-out: Activity
[2] = THP-1, Table 4, IL-1β secretion, LPS/nigericin-stimulated THP-1 cells, read-out: IC50

Row | SMILES | IC50 [1] [nM] | IC50 [2] [nM]
1 | O=C1c2ccc(Br)cc2C2(CC2)CN1C1(C(=O)Nc2ncccn2)CC1 [Example 77, 1-(6-bromo-1-oxospiro[3H-isoquinoline-4,1′-cyclopropane]-2-yl)-N-pyrimidin-2-ylcyclopropane-1-carboxamide] | < 10000 | 3720
2 | O=C(CN1C[C@]2(C[C@H]2F)c2cc(Br)ccc2C1=O)Nc1ncc(F)cn1 [Example 79, 2-[(2′R,4S)-6-bromo-2′-fluoro-1-oxospiro[3H-isoquinoline-4,1′-cyclopropane]-2-yl]-N-(5-fluoropyrimidin-2-yl)acetamide] | < 10000 | 15
3 | O=C(CN1CC2(CC23CC3)c2cc(Br)ccc2C1=O)Nc1ncc(F)cn1 (stereo not drawn) [Example 81, N-(5-fluoropyrimidin-2-yl)-2-(6-bromo-1-oxospiro[3H-isoquinoline-4,1′-(spiro[2.2]pentan-1-yl)]-2-yl)acetamide] | < 10000 | 2560
4 | O=C(CN1CC2(CC2)c2cc(OCF)ccc2C1=O)Nc1ncccn1 [Example 82, 2-[6-(fluoromethoxy)-1-oxospiro[3H-isoquinoline-4,1′-cyclopropane]-2-yl]-N-pyrimidin-2-ylacetamide] | < 10000 | 2220
5 | O=C(CN1CC2(CC2)c2c(ccc(Br)c2Cl)C1=O)Nc1ncc(F)cn1 [Example 83, 2-(6-bromo-5-chloro-1-oxospiro[3H-isoquinoline-4,1′-cyclopropane]-2-yl)-N-(5-fluoropyrimidin-2-yl)acetamide] | < 10000 | 521
6 | O=C(CN1CC2(CC2)c2cc(C(F)(F)F)c(F)cc2C1=O)Nc1ncc(F)cn1 [Example 84, 2-[7-fluoro-1-oxo-6-(trifluoromethyl)spiro[3H-isoquinoline-4,1′-cyclopropane]-2-yl]-N-(5-fluoropyrimidin-2-yl)acetamide] | < 10000 | 5980
7 | N#Cc1cnc(NC(=O)CN2CC3(CC3)c3cc(C(F)(F)F)ccc3C2=O)c(F)c1 [Example 85, N-(5-cyano-3-fluoropyridin-2-yl)-2-[1-oxo-6-(trifluoromethyl)spiro[3H-isoquinoline-4,1′-cyclopropane]-2-yl]acetamide] | < 10000 | 992
8 | O=C(CN1C[C@@]2(C[C@@H]2C(F)(F)F)c2cc(Br)ccc2C1=O)Nc1ncc(F)cn1 [Example 86, 2-[(2′s,4r)-6-bromo-1-oxo-2′-(trifluoromethyl)spiro[3H-isoquinoline-4,1′-cyclopropane]-2-yl]-N-(5-fluoropyrimidin-2-yl)acetamide] | < 10000 | 2810
9 | O=C(CN1CC2(CC2)c2cc(C3CCC3)ccc2C1=O)Nc1ncc(F)cn1 [Example 87, 2-(6-cyclobutyl-1-oxospiro[3H-isoquinoline-4,1′-cyclopropane]-2-yl)-N-(5-fluoropyrimidin-2-yl)acetamide] | < 10000 | 5390
10 | O=C(CN1CC2(CC2)c2cc(C3CC3(F)F)ccc2C1=O)Nc1ncc(F)cn1 (stereo not drawn) [Example 88, 2-[6-(2,2-difluorocyclopropyl)-1-oxo-spiro[3H-isoquinoline-4,1′-cyclopropane]-2-yl]-N-(5-fluoropyrimidin-2-yl)acetamide] | < 10000 | 3610
11 | N#Cc1c(C(F)(F)F)ccc2c1C1(CC1)CN(CC(=O)Nc1ncc(F)cn1)C2=O [Example 89, 2-[5-cyano-1-oxo-6-(trifluoromethyl)spiro[3H-isoquinoline-4,1′-cyclopropane]-2-yl]-N-(5-fluoropyrimidin-2-yl)acetamide] | < 10000 | 6840
12 | O=C(CN1CC2(CC2)c2cc(I)ccc2C1=O)Nc1ncc(F)cn1 [Example 90, N-(5-fluoropyrimidin-2-yl)-2-(6-iodo-1-oxospiro[3H-isoquinoline-4,1′-cyclopropane]-2-yl)acetamide] | < 10000 | 34
13 | COc1ccc2c(c1)C1(CC1)CN(CC(=O)Nc1ncccn1)C2=O [Example 91, 2-(6-methoxy-1-oxospiro[3H-isoquinoline-4,1′-cyclopropane]-2-yl)-N-pyrimidin-2-ylacetamide] | < 10000 | 3210
14 | O=C(CN1CC2(COC2)c2cc(Br)ccc2C1=O)Nc1ncccn1 [Example 92, 2-(6-bromo-1-oxospiro[3H-isoquinoline-4,3′-oxetane]-2-yl)-N-pyrimidin-2-ylacetamide] | < 10000 | 4460
15 | N#CC1(c2ccc3c(c2)C2(CC2)CN(CC(=O)Nc2ncc(F)cn2)C3=O)CC1 [Example 93, 2-[6-(1-cyanocyclopropyl)-1-oxospiro[3H-isoquinoline-4,1′-cyclopropane]-2-yl]-N-(5-fluoropyrimidin-2-yl)acetamide] | < 10000 | 2280
16 | O=C(CN1CC2(CC2)c2cc(Cl)ccc2C1=O)Nc1ncc(F)cn1 [Example 94, 2-(6-chloro-1-oxospiro[3H-isoquinoline-4,1′-cyclopropane]-2-yl)-N-(5-fluoropyrimidin-2-yl)acetamide] | < 10000 | 369
17 | O=C(CN1CC(C(F)F)c2cc(Br)ccc2C1=O)Nc1ncc(F)cn1 (stereo not drawn) [Example 95, 2-[6-bromo-4-(difluoromethyl)-1-oxo-3,4-dihydroisoquinolin-2-yl]-N-(5-fluoropyrimidin-2-yl)acetamide] | < 10000 | 320

Row | SMILES | IC50 [1] [nM] | IC50 [2] [nM]
18 | O=C(CN1CC2(CC2)c2cc(C(F)F)ccc2C1=O)Nc1ncc(F)cn1 [Example 96, 2-[6-(difluoromethyl)-1-oxospiro[3H-isoquinoline-4,1′-cyclopropane]-2-yl]-N-(5-fluoropyrimidin-2-yl)acetamide] | < 10000 | 1330
19 | CC1(c2ccc3c(c2)C2(CC2)CN(CC(=O)Nc2ncc(F)cn2)C3=O)CC1 [Example 97, N-(5-fluoropyrimidin-2-yl)-2-[6-(1-methylcyclopropyl)-1-oxospiro[3H-isoquinoline-4,1′-cyclopropane]-2-yl]acetamide] | < 10000 | 1220
20 | O=C(CN1CC2(CC2)c2c(ccc(Cl)c2F)C1=O)Nc1ncc(F)cn1 [Example 98, 2-(6-chloro-5-fluoro-1-oxospiro[3H-isoquinoline-4,1′-cyclopropane]-2-yl)-N-(5-fluoropyrimidin-2-yl)acetamide] | < 10000 | 349
21 | O=C(CN1CC2(CC2)c2cc(Br)c(F)cc2C1=O)Nc1ncc(F)cn1 [Example 99, 2-(6-bromo-7-fluoro-1-oxospiro[3H-isoquinoline-4,1′-cyclopropane]-2-yl)-N-(5-fluoropyrimidin-2-yl)acetamide] | < 10000 | 598
22 | O=C(CN1CC2(CC2)c2c(ccc(C3CC3)c2F)C1=O)Nc1ncc(F)cn1 [Example 100, 2-(6-cyclopropyl-5-fluoro-1-oxospiro[3H-isoquinoline-4,1′-cyclopropane]-2-yl)-N-(5-fluoropyrimidin-2-yl)acetamide] | < 10000 | 114
23 | CC(F)(F)c1ccc2c(c1)C1(CC1)CN(CC(=O)Nc1ncc(F)cn1)C2=O [Example 101, 2-[6-(1,1-difluoroethyl)-1-oxospiro[3H-isoquinoline-4,1′-cyclopropane]-2-yl]-N-(5-fluoropyrimidin-2-yl)acetamide] | < 10000 | 672
24 | O=C(CN1CC2(CC2)c2cc(Br)ccc2C1=S)Nc1ncc(F)cn1 [Example 102, 2-(6-bromo-1-sulfanylidenespiro[3H-isoquinoline-4,1′-cyclopropane]-2-yl)-N-(5-fluoropyrimidin-2-yl)acetamide] | < 10000 | 169
25 | O=C(CN1CC2(CC2)c2cc(Br)ccc2C1=O)Nc1ncc(-c2ccccn2)cn1 [Example 104, 2-(6-bromo-1-oxospiro[3H-isoquinoline-4,1′-cyclopropane]-2-yl)-N-(5-pyridin-2-ylpyrimidin-2-yl)acetamide] | < 10000 | 1870
26 | N#Cc1cnc(NC(=O)CN2CC3(CC3)c3c(ccc(Br)c3F)C2=O)nc1 [Example 105, 2-(6-bromo-5-fluoro-1-oxospiro[3H-isoquinoline-4,1′-cyclopropane]-2-yl)-N-(5-cyanopyrimidin-2-yl)acetamide] | < 10000 | 119
27 | N#Cc1cnc(NC(=O)CN2CC3(CC3)c3c(ccc(Br)c3F)C2=O)c(F)c1 [Example 106, 2-(6-bromo-5-fluoro-1-oxospiro[3H-isoquinoline-4,1′-cyclopropane]-2-yl)-N-(5-cyano-3-fluoropyridin-2-yl)acetamide] | < 10000 | 156
28 | N#Cc1ccnc(NC(=O)CN2CC3(CC3)c3cc(Br)ccc3C2=O)n1 [Example 107, 2-(6-bromo-1-oxospiro[3H-isoquinoline-4,1′-cyclopropane]-2-yl)-N-(4-cyanopyrimidin-2-yl)acetamide] | < 10000 | 2820
29 | O=C(CN1CC2(CC2)c2c(ccc(I)c2F)C1=O)Nc1ncc(F)cn1 [Example 108, 2-(5-fluoro-6-iodo-1-oxospiro[3H-isoquinoline-4,1′-cyclopropane]-2-yl)-N-(5-fluoropyrimidin-2-yl)acetamide] | < 10000 | 18
30 | O=C(CN1C[C@]2(C[C@H]2F)c2cc(Br)ccc2C1=O)Nc1ncccn1 [Example 109] | < 10000 | 36
31 | O=C(CN1C[C@]2(C[C@H]2F)c2cc(Br)ccc2C1=O)Nc1ncc(Cl)cn1 [Example 110] | < 10000 | 12
32 | O=C(CN1CC2(CC2)c2cc(Br)ccc2C1=O)NC1CC(C(F)F)C1 (stereo not drawn) [Example 111, 2-(6-bromo-1-oxospiro[3H-isoquinoline-4,1′-cyclopropane]-2-yl)-N-[3-(difluoromethyl)cyclobutyl]acetamide] | < 10000 | 2420
33 | O=C(CN1CC2(CC2)c2cc(Br)ccc2C1=O)NCC1(CC(F)F)CCC1 [Example 112, 2-(6-bromo-1-oxospiro[3H-isoquinoline-4,1′-cyclopropane]-2-yl)-N-[[1-(2,2-difluoroethyl)cyclobutyl]methyl]acetamide] | > 15000 | 13000

From patent US20230416205A1, “COMPOUNDS, COMPOSITIONS, AND METHODS” (Denali Therapeutics Inc, priority 2020, published 2023)
